Experimental findings from ChEMBL document CHEMBL1158056, “Antidepressant principles of the roots of Polygala tenuifolia” (J Nat Prod, 2006) are described below.

The experiment concerns the target Sodium-dependent noradrenaline transporter (Homo sapiens, UniProt P23975). As to the kind of experiment: biochemical.

SMILES strings stand for the structures.

Chain of Sodium-dependent noradrenaline transporter (P23975 whole entry): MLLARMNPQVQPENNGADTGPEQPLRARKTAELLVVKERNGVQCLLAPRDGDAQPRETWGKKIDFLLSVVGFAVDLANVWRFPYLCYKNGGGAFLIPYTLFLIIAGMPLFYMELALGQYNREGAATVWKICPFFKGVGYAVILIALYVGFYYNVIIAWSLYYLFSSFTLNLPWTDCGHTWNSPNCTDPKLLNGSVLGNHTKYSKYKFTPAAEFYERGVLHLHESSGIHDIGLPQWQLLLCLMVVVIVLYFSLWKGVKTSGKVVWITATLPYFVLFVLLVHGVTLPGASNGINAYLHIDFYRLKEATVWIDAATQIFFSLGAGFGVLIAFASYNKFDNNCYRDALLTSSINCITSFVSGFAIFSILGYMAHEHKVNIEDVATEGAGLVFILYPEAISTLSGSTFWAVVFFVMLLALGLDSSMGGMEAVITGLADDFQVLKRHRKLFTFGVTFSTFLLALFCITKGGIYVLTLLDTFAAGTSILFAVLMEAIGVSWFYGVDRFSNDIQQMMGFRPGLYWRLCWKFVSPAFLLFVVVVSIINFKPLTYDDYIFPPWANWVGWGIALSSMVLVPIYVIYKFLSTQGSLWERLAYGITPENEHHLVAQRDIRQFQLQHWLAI
Description: Displacement of [125I]RTI-55 from human NET expressed in MDCK cell membrane

The molecule `OC[C@@H]1OC[C@@H](O[C@@H]2O[C@@H](COCc3ccccc3)[C@@H](O)[C@@H](O)[C@@H]2O)[C@H](O)[C@H]1O` [POLYGALATENOSIDE A] returned a half-maximal inhibitory concentration (IC50) of 30 µM. On to `OC[C@@H]1OC[C@@H](O[C@@H]2O[C@@H](CO)[C@@H](O)[C@@H](OCc3ccccc3)[C@@H]2O)[C@H](O)[C@H]1O` [POLYGALATENOSIDE B], for which the IC50 came out at 6.04 µM.

Usually IC50 stands for the point on the concentration scale where inhibition reaches its midpoint.
